# Experimental data published in publication PMC11079024, “Identification of a family of species-selective complex I inhibitors as potential anthelmintics” (Nature Communications, 2024).
# Several values for one entry are separate records, joined by “and”; a condition that tells them apart may be missing. Equal entries are not always repeated.
# System: adult H. polygyrus
# Type: cell-based, Heligmosomoides polygyrus
# Settings: 10 µM, 24-h exposure, aerobic
# Procedure: After either 24- or 72 h chemical treatment, worm viability was manually scored by an examiner using a scale from 0 (dead) to 3 (motile); DMSO was used as a negative control in both 24- and 72 h treatments. The percentage of affected worms (i.e., worms with a score equal to or lower than 1.5) in each biological replicate is shown; data are from two biological replicates. Within each boxplot, black horizontal lines denote group medians, boxes span from the 25th to the 75th percentile of each group’s distribution, and whiskers extend to the maximum and minimum values.
# The eleven benzimidazole derivatives were tested at a concentration of 10 µM under aerobic conditions against L3 and adult H. polygyrus.
# For the larval assay, mice feces were collected 2 weeks post-infection and eggs were isolated. The eggs were left on agar at room temperature in the dark for eight to 10 days to allow them to develop into L3. Next, 30–40 L3 were incubated (37 °C, 5% CO2) in the culture medium (RPMI 1640 medium + 1% pen./strep. + 5% amphotericin B) containing the derivatives in 96-well plate (Corning, USA) reaching a final volume of 250 µL for 24 h. For the adult drug screening assay, female NMRI mice were euthanized with CO2 and adult H. polygyrus were dissected out of the intestines. Subsequently, three worms were exposed to the culture medium (RPMI 1640 medium + 1% pen./strep. + 5% amphotericin B) with the derivatives (2 mL) in a 24-well plate (Corning, USA) for either 24 or 72 h. DMSO ( < 1%) served as a negative control in both assays. All conditions were tested in duplicates. Finally, 80 µL of hot water ( ~ 80 °C) for L3 and 500 µL of hot water (~80 °C) for adults were added to the wells to check for their viability under a microscope (Carl Zeiss, Germany). Larvae were categorized as being either alive or dead, depending on whether they moved or not. […] The whole experiment was performed two times i.e., two independent biological replicates for both life stages (L3s and adults) and exposure times (24 and 72 h).
row,SMILES,effect on adult H. polygyrus viability
1,CCn1c(C(C)c2ccc(CC(C)C)cc2)nc2ccccc21 (stereo not drawn) [STK951902],potent effects
2,Cc1ccccc1OCCCCn1cnc2ccccc21 [Compound 7732524],potent effects
3,Clc1ccccc1OCCCCn1cnc2ccccc21 [Compound 7925804],potent effects
4,Clc1ccc(SCCCCn2cnc3ccccc32)cc1 [Compound 7925515],potent effects

# Same assay, conditions: adult H. polygyrus, aerobic, replicate 1; 24 hours after treatment; affected = score equal to or lower than 1.5
row,SMILES,Percent Worms Affected [%]
1,Cc1nc2ccccc2n1Cc1ccc(Cl)cc1 [STK697993],17
2,Clc1ccc(Cn2cnc3ccccc32)c(Cl)c1 [Compound 6750659],33
3,Cc1nc2ccccc2n1Cc1ccccc1Cl [Compound 6707368],0
4,CC(C)Cc1ccc(C(C)c2nc3ccccc3n2C(C)C)cc1 (stereo not drawn) [STK951903],67
5,CCn1c(C(C)c2ccc(CC(C)C)cc2)nc2ccccc21 (stereo not drawn) [STK951902],67
6,Cc1ccccc1OCCCCn1cnc2ccccc21 [Compound 7732524],100
7,Cc1nc2ccccc2n1Cc1ccc(Br)cc1 [Compound 5567167],33
8,Clc1ccc(SCCCCn2cnc3ccccc32)cc1 [Compound 7925515],100

# Same assay, conditions: adult H. polygyrus, aerobic, replicate 2; 24 hours after treatment; affected = score equal to or lower than 1.5
row,SMILES,Percent Worms Affected [%]
1,Cc1nc2ccccc2n1Cc1ccc(Cl)cc1 [STK697993],17
2,Clc1ccc(Cn2cnc3ccccc32)c(Cl)c1 [Compound 6750659],17
3,Cc1nc2ccccc2n1Cc1ccccc1Cl [Compound 6707368],14
4,CC(C)Cc1ccc(C(C)c2nc3ccccc3n2C(C)C)cc1 (stereo not drawn) [STK951903],14
5,CCn1c(C(C)c2ccc(CC(C)C)cc2)nc2ccccc21 (stereo not drawn) [STK951902],83
6,Cc1ccccc1OCCCCn1cnc2ccccc21 [Compound 7732524],67
7,Cc1nc2ccccc2n1Cc1ccc(Br)cc1 [Compound 5567167],17
8,Clc1ccc(SCCCCn2cnc3ccccc32)cc1 [Compound 7925515],50

# Same assay, conditions: adult H. polygyrus, in vitro, aerobic, 24 hours, per biological replicate
SMILES,# of Worms Affected,Percent Worms Affected (worms with a score equal to or lower than 1.5)
Cc1nc2ccccc2n1Cc1ccc(Cl)cc1 [STK697993],1,17%
Clc1ccc(Cn2cnc3ccccc32)c(Cl)c1 [Compound 6750659],,33% and 17%
Cc1nc2ccccc2n1Cc1ccccc1Cl [Compound 6707368],,0% and 14%
CC(C)Cc1ccc(C(C)c2nc3ccccc3n2C(C)C)cc1 (stereo not drawn) [STK951903],,67% and 14%
CCn1c(C(C)c2ccc(CC(C)C)cc2)nc2ccccc21 (stereo not drawn) [STK951902],,67% and 83%
Cc1ccccc1OCCCCn1cnc2ccccc21 [Compound 7732524],4 and 6,67%
Cc1nc2ccccc2n1Cc1ccc(Br)cc1 [Compound 5567167],,33% and 17%
Clc1ccccc1OCCCCn1cnc2ccccc21 [Compound 7925804],,60% and 67%
Clc1ccc(SCCCCn2cnc3ccccc32)cc1 [Compound 7925515],,50% and 100%
Brc1ccc(Cn2cnc3ccccc32)cc1 [Compound 5542661],,17% and 0%

# Same assay, conditions: adult H. polygyrus, in vitro, aerobic, 24 hours, single worms
row,SMILES,"Worm viability score of individual worm, scale from 0 (dead) to 3 (motile)"
1,Cc1nc2ccccc2n1Cc1ccc(Cl)cc1 [STK697993],2.5 and 1.5
2,Clc1ccc(Cn2cnc3ccccc32)c(Cl)c1 [Compound 6750659],1.5 and 2.5
3,Cc1nc2ccccc2n1Cc1ccccc1Cl [Compound 6707368],2.5
4,CC(C)Cc1ccc(C(C)c2nc3ccccc3n2C(C)C)cc1 (stereo not drawn) [STK951903],1.5 and 2.5 and 2
5,CCn1c(C(C)c2ccc(CC(C)C)cc2)nc2ccccc21 (stereo not drawn) [STK951902],2 and 1 and 1.5
6,Cc1ccccc1OCCCCn1cnc2ccccc21 [Compound 7732524],1.25 (4×) and 1
7,Cc1nc2ccccc2n1Cc1ccc(Br)cc1 [Compound 5567167],2.5 and 2 and 1.5
8,Clc1ccccc1OCCCCn1cnc2ccccc21 [Compound 7925804],1.5 and 2
9,Clc1ccc(SCCCCn2cnc3ccccc32)cc1 [Compound 7925515],1.5
10,Brc1ccc(Cn2cnc3ccccc32)cc1 [Compound 5542661],2.5 and 2

# Same assay, conditions: adult H. polygyrus, in vitro, aerobic, 72 hours, per biological replicate
SMILES,Percent Worms Affected (worms with a score equal to or lower than 1.5),# of Worms Affected
Cc1nc2ccccc2n1Cc1ccc(Cl)cc1 [STK697993],17% and 100%,
Clc1ccc(Cn2cnc3ccccc32)c(Cl)c1 [Compound 6750659],33% and 100%,
Cc1nc2ccccc2n1Cc1ccccc1Cl [Compound 6707368],29% and 100%,
CC(C)Cc1ccc(C(C)c2nc3ccccc3n2C(C)C)cc1 (stereo not drawn) [STK951903],100%,6
CCn1c(C(C)c2ccc(CC(C)C)cc2)nc2ccccc21 (stereo not drawn) [STK951902],100% and 67%,
Cc1ccccc1OCCCCn1cnc2ccccc21 [Compound 7732524],83% and 100%,
Cc1nc2ccccc2n1Cc1ccc(Br)cc1 [Compound 5567167],83% and 100%,
Clc1ccccc1OCCCCn1cnc2ccccc21 [Compound 7925804],100% and 83%,5
Clc1ccc(SCCCCn2cnc3ccccc32)cc1 [Compound 7925515],100%,
Brc1ccc(Cn2cnc3ccccc32)cc1 [Compound 5542661],17% and 83%,

# Same assay, conditions: adult H. polygyrus, in vitro, aerobic, 72 hours, single worms
row,SMILES,"Worm viability score of individual worm, scale from 0 (dead) to 3 (motile)"
1,Clc1ccc(Cn2cnc3ccccc32)c(Cl)c1 [Compound 6750659],1.5
2,Cc1nc2ccccc2n1Cc1ccccc1Cl [Compound 6707368],1.5
3,Cc1ccccc1OCCCCn1cnc2ccccc21 [Compound 7732524],0.5
4,Cc1nc2ccccc2n1Cc1ccc(Br)cc1 [Compound 5567167],1.5
5,Clc1ccccc1OCCCCn1cnc2ccccc21 [Compound 7925804],1.5
6,Brc1ccc(Cn2cnc3ccccc32)cc1 [Compound 5542661],1.5

# Same assay, conditions: aerobic, replicate 1; 24 hours after treatment; worms with score equal to or lower than 1.5
row,SMILES,# of Worms Affected
1,Cc1nc2ccccc2n1Cc1ccc(Cl)cc1 [STK697993],1
2,Clc1ccc(Cn2cnc3ccccc32)c(Cl)c1 [Compound 6750659],2
3,Cc1nc2ccccc2n1Cc1ccccc1Cl [Compound 6707368],0
4,CC(C)Cc1ccc(C(C)c2nc3ccccc3n2C(C)C)cc1 (stereo not drawn) [STK951903],4
5,CCn1c(C(C)c2ccc(CC(C)C)cc2)nc2ccccc21 (stereo not drawn) [STK951902],4
6,Cc1ccccc1OCCCCn1cnc2ccccc21 [Compound 7732524],6
7,Cc1nc2ccccc2n1Cc1ccc(Br)cc1 [Compound 5567167],2
8,Clc1ccccc1OCCCCn1cnc2ccccc21 [Compound 7925804],2
9,Clc1ccc(SCCCCn2cnc3ccccc32)cc1 [Compound 7925515],6

# Same assay, conditions: aerobic, replicate 2; 24 hours after treatment; worms with score equal to or lower than 1.5
row,SMILES,# of Worms Affected
1,Cc1nc2ccccc2n1Cc1ccc(Cl)cc1 [STK697993],1
2,Clc1ccc(Cn2cnc3ccccc32)c(Cl)c1 [Compound 6750659],1
3,Cc1nc2ccccc2n1Cc1ccccc1Cl [Compound 6707368],1
4,CC(C)Cc1ccc(C(C)c2nc3ccccc3n2C(C)C)cc1 (stereo not drawn) [STK951903],1
5,CCn1c(C(C)c2ccc(CC(C)C)cc2)nc2ccccc21 (stereo not drawn) [STK951902],5
6,Cc1ccccc1OCCCCn1cnc2ccccc21 [Compound 7732524],4
7,Cc1nc2ccccc2n1Cc1ccc(Br)cc1 [Compound 5567167],1
8,Clc1ccccc1OCCCCn1cnc2ccccc21 [Compound 7925804],4
9,Clc1ccc(SCCCCn2cnc3ccccc32)cc1 [Compound 7925515],4
